In US9434704B2, “Compositions and methods for the treatment of neurological degenerative disorders” (CELLIX BIO PRIVATE LIMITED, priority 2012, dated 2016):
Several values for one entry are separate records, joined by “and”; a condition that tells them apart may be missing. Equal entries are not always repeated.

Key:
in vivo = settings: female, Wistar, rat, ip, 8 mg/kg
[1] = rat, in vivo, 8 mg/kg

In the case of `CC(OC(=O)CCCC[C@]1(C)CCSS1)OC(=O)Nc1nc2ccc(OC(F)(F)F)cc2s1` (stereo partly shown) [Formula II (2-1)], the Cmax (in vivo) is reported as 10200 ng/g and 3380 ng/mL, the half-life (in vivo; t1/2 in brain) is reported as 13.2 h and the half-life (in vivo; t1/2 in cervical SC) is reported as 13.2 h. For the same compound, the half-life (in vivo; t1/2 in plasma) was 11 h, the half-life (in vivo; t1/2 in thoracic SC) was 11 h and the “time to reach spinal cord (SC)” value ([1]; female, Wistar) was no more than 15 min. For the same compound, the “time of Cmax in SC” value [1] was 1.5 h, the “absorption after I.P. administration” value ([1]; ip) was “readily absorbed” and the “time of Cmax in brain” value ([1]; ip) was 0.7 h. The “time of Cmax in plasma” value ([1]; ip) was 0.5 h.
